These are literature values, as cited in paper PMC3420346 (Bioorganic & medicinal chemistry, 2012).

The conditions of series [1]: compared with related 9-riboside derivatives.

Turning to `CNc1nc(I)nc2c1ncn2[C@H]1C[C@H](OP(=O)(O)O)[C@]2(COP(=O)(O)O)C[C@H]12` [Compound 1, (1′R,2′S,4′S,5′S)-4-(2-iodo-6-methylamino-purin-9-yl)-1-[(phosphato)-methyl]-2-(phosphato)-bicyclo[3.1.0]hexane], the “Reduction of thrombus formation in vivo” value in the series with thrombus formation is reported as “effective in reducing thrombus formation in vivo”. In addition, the Resistance to degradation result in series [1] is reported as “more resistant to degradation than related 9-riboside derivatives”.
